Data from patent publication US9056923B2, “Mimetic peptides derived from collagen type IV and their use for treating angiogenesis- and lymphagiogenesis-dependent diseases” (THE JOHNS HOPKINS UNIVERSITY, priority 2010, dated 2015).
Square brackets hold non-standard residues; d marks the D form. Ends that are not written are not given here. Peptide text beside a SMILES is read from it. Phe(4-Cl) = N[C@@H](Cc1ccc(Cl)cc1)C(=O)O; Nle = CCCC[C@H](N)C(=O)O; Abu = CC[C@H](N)C(=O)O

How the values were obtained:
Format in all cases: cell-based, human
[1] = test system: HUVEC; experiment: HUVEC migration assay (RT-CIM); conditions: for Activity in Migration: Yes/No summary, active = inhibitory potential greater than 30%; for Migration Inhibition (50 uM): 50 uM peptide
Method: The inhibitory potential of the peptides was measured using a real time migration assay system based on electrical impedance (RT-CIM, ACEA Biosciences, CA). CIM 16 well plates (Roche, 05665817001) are composed of a top and bottom chamber separated by a microporous (8 μm) polycarbonate membrane. The membrane was coated with fibronectin (20 μg/mL), and 45,000 cells/well in serum free media with or without peptides were added to the top compartment. Media with chemoattractant (i.e., fully supplemented EBM-2) was added to the bottom compartment of the chamber and the plate was incubated at 37° C. for 20 hours. The sensors integrated on the bottom side of the membrane monitor and continuously record changes in impedance as the cells move through the membrane. The RT-CIM technology allows for easy quantification of cell migration by monitoring the cell index derived from the measured impedances. Assays were performed in at least two independent replicates and each replicate was performed using two experimental duplicates.

[2] = test system: HUVEC; experiment: HUVEC tube formation assay on Matrigel; conditions: for Tube formation Inhibition (100 uM): 100 uM peptide; for Activity in Tube formation: Yes/No summary; for inhibition of tube formation: concentration not given
Method: The compounds also were tested for their ability to inhibit tube formation, a process critical in angiogenesis. Endothelial cells spontaneously form a network of tubes when plated on extracts of extracellular matrix. This in vitro assay combines aspects of adhesion and migration and it is routinely used in angiogenesis research (Oliveira-Ferrer et al., 2008). The ability to inhibit tube formation is a comprehensive assessment of the anti-angiogenic potential. The protocol was described by Arnaoutova et al. (2009) and it consists of plating HUVEC on top of basement membrane extract and after incubation at 37° C. the cells naturally rearrange themselves in a network of tubes. Thus, 50 μL/well of Matrigel (BD Biosciences, San Jose, Calif.) was plated in a cold 96 well plate and incubated at 37° C. for 30 min for polymerization. 15,000 cells/well were added to the top of the gel and incubated in complete media in the presence or absence of peptide for 19 hours. Images were captured using the CCD Sensicam mounted on a Nikon microscope (Eclipse T-100). Assays were performed in at least two independent replicates and each replicate was performed using three experimental replicates and one image of a randomly chosen field was acquired per well.

[3] = test system: HUVEC; conditions: HUVEC; for Activity in Adhesion: Yes/No summary, active = inhibitory potential greater than 30%; for Adhesion Inhibition (100 uM): 100 uM peptide
Method: Similar to the migration assays, the inhibition activity of the peptide in cellular adhesion was assessed using the RT-CIM technology. In this case, 25,000 cells/well were plated in 16 wells E-plates (Roche, Basel Switzerland) in the presence or absence of the peptide. The adhesion was monitored over time (3 hours) by measuring changes in the electrical impedance, which is a direct measure of the cells adhering on the electrodes. […] Assays were performed in at least two independent replicates and each replicate was performed using two experimental duplicates.

[4] = test system: HUVEC; conditions: for Activity in Proliferation: Yes/No summary
Method: Several assays were used to test the peptides discussed in the Examples herein. A colorimetric based proliferation assay using WST-1 (Roche, 11644807001) proliferation reagent was carried out using HUVEC cells. 2000 cells/well were plated in 96-well plates and allowed to adhere overnight. On the following day, the media was exchanged with fully supplemented media containing peptides or equivalent DMSO vehicle for the controls. Three days later the media containing the peptides was replaced with serum-free EBM-2 media containing WST-1 reagent and the plates were incubated for four hours as per the manufacturer's recommendations. Changes in color, due to the formazan dye resulted from the cleavage of the tetrazolium salt WST-1 by the mitochondrial succinate-tetrazolium reductase, were read on a Victor V fluorescence plate reader (Perkin Elmer, MA) by measuring the absorbance at 450 nm Dose response curves of percent live cells (in comparison to untreated cells but incubated in complete media with 0.2% DMSO) were created. Assays were performed in at least two independent replicates and each replicate was performed using three experimental triplicates.

## CC[C@H](NC(=O)[C@H](Cc1ccccc1)NC(=O)[C@H](CCSC)NC(=O)[C@H](Cc1ccccc1)NC(=O)[C@@H]1CCCN1C(=O)[C@H](CCSC)NC(=O)[C@@H](NC(=O)[C@H](CO)NC(=O)[C@H](Cc1ccccc1)NC(=O)[C@H](CCCNC(=N)N)NC(=O)[C@H](CCCNC(=N)N)NC(=O)[C@@H](N)CC(C)C)[C@@H](C)O)C(=O)N[C@@H](CC(N)=O)C(=O)N[C@H](C(=O)N[C@@H](CC(N)=O)C(=O)N[C@H](C(=O)O)C(C)C)[C@@H](C)CC [SP2006, LRRFSTMPFMFAbuNINV] (H-LRRFSTMPFMF[Abu]NINV-OH; N-terminus and C-terminus assumed)
[1]
  Activity in Migration: No
[1]; concentration not given
  migration inhibition: 18%
[2]
  Tube formation Inhibition (100 uM): Complete
  Activity in Tube formation: Yes
  inhibition of tube formation: Inhibition of tube formation
[2]; high dose, 100 nM
  inhibition of tube formation (FIG. 20): active at inhibiting tube formation
[3]; 50 μM peptide
  inhibition of adhesion at 50 μM: inhibition of adhesion
[3]
  Activity in Adhesion: Yes
[4]; HUVEC
  inhibition of proliferation: did not inhibit proliferation
  Activity in Proliferation: No

## CC[C@H](NC(=O)[C@H](Cc1ccccc1)NC(=O)[C@H](CCSC)NC(=O)[C@H](Cc1ccccc1)NC(=O)[C@@H]1CCCN1C(=O)[C@H](CCSC)NC(=O)[C@@H](NC(=O)[C@H](CO)NC(=O)[C@H](Cc1ccccc1)NC(=O)[C@H](CCCNC(=N)N)NC(=O)[C@H](CCCNC(=N)N)NC(=O)[C@@H](N)CC(C)C)[C@@H](C)O)C(N)=O [SP2007, LRRFSTMPFMFAbu] (H-LRRFSTMPFMF[Abu]-NH2; N-terminus assumed)
[1]
  Migration Inhibition (50 uM): Inactive
  Activity in Migration: No
[1]; concentration not given
  inhibition of migration: absence of activity
[2]
  Tube formation Inhibition (100 uM): Inactive
  Activity in Tube formation: No
[3]
  Adhesion Inhibition (100 uM): 11%
  Activity in Adhesion: No
[3]; concentration not given
  inhibition of adhesion: absence of activity
[4]; HUVEC
  Activity in Proliferation: No
[4]; HUVEC, summary tables 2-4, 6, 7
  Proliferation Inhibition (IC50 in uM): Inactive

## CC[C@H](NC(=O)[C@H](Cc1ccccc1)NC(=O)[C@H](CCSC)NC(=O)[C@H](C)NC(=O)[C@@H]1CCCN1C(=O)[C@H](CCSC)NC(=O)[C@@H](NC(=O)[C@H](CO)NC(=O)[C@H](Cc1ccccc1)NC(=O)[C@H](CCCNC(=N)N)NC(=O)[C@H](CCCNC(=N)N)NC(=O)[C@@H](N)CC(C)C)[C@@H](C)O)C(=O)N[C@@H](CC(N)=O)C(=O)N[C@H](C(=O)N[C@@H](CC(N)=O)C(=O)N[C@@H](CC(N)=O)C(=O)N[C@H](C(=O)N[C@@H](CC)C(=O)N[C@@H](CC(N)=O)C(=O)N[C@@H](Cc1ccccc1)C(N)=O)C(C)C)[C@@H](C)CC [SP2015, LRRFSTMPAMF(Abu)NINNV(Abu)NF] (H-LRRFSTMPAMF[Abu]NINNV[Abu]NF-NH2; N-terminus assumed)
[1]
  Migration Inhibition (50 uM): 100%
[2]
  Tube formation Inhibition (100 uM): Complete
  inhibition of tube formation: significant inhibition of tube formation
[3]
  Adhesion Inhibition (100 uM): 96%

## CC[C@H](NC(=O)[C@H](Cc1ccccc1)NC(=O)[C@H](C)NC(=O)[C@H](Cc1ccccc1)NC(=O)[C@@H]1CCCN1C(=O)[C@H](CCSC)NC(=O)[C@@H](NC(=O)[C@H](CO)NC(=O)[C@H](Cc1ccccc1)NC(=O)[C@H](CCCNC(=N)N)NC(=O)[C@H](CCCNC(=N)N)NC(=O)[C@@H](N)CC(C)C)[C@@H](C)O)C(=O)N[C@@H](CC(N)=O)C(=O)N[C@H](C(=O)N[C@@H](CC(N)=O)C(=O)N[C@@H](CC(N)=O)C(=O)N[C@H](C(=O)N[C@@H](CC)C(=O)N[C@@H](CC(N)=O)C(=O)N[C@@H](Cc1ccccc1)C(N)=O)C(C)C)[C@@H](C)CC [SP2016, LRRFSTMPFAF(Abu)NINNV(Abu)NF] (H-LRRFSTMPFAF[Abu]NINNV[Abu]NF-NH2; N-terminus assumed)
[1]
  Migration Inhibition (50 uM): 99.6%
[3]
  Adhesion Inhibition (100 uM): 96%

## CC[C@H](NC(=O)[C@H](C)NC(=O)[C@H](CCSC)NC(=O)[C@H](Cc1ccccc1)NC(=O)[C@@H]1CCCN1C(=O)[C@H](CCSC)NC(=O)[C@@H](NC(=O)[C@H](CO)NC(=O)[C@H](Cc1ccccc1)NC(=O)[C@H](CCCNC(=N)N)NC(=O)[C@H](CCCNC(=N)N)NC(=O)[C@@H](N)CC(C)C)[C@@H](C)O)C(=O)N[C@@H](CC(N)=O)C(=O)N[C@H](C(=O)N[C@@H](CC(N)=O)C(=O)N[C@@H](CC(N)=O)C(=O)N[C@H](C(=O)N[C@@H](CC)C(=O)N[C@@H](CC(N)=O)C(=O)N[C@@H](Cc1ccccc1)C(N)=O)C(C)C)[C@@H](C)CC [SP2017, LRRFSTMPFMA(Abu)NINNV(Abu)NF] (H-LRRFSTMPFMA[Abu]NINNV[Abu]NF-NH2; N-terminus assumed)
[1]
  Migration Inhibition (50 uM): 100%
[3]
  Adhesion Inhibition (100 uM): 95.5%%

## CCCC[C@H](NC(=O)[C@H](Cc1ccccc1)NC(=O)[C@@H]1CCCN1C(=O)[C@H](CCSC)NC(=O)[C@@H](NC(=O)[C@H](CO)NC(=O)[C@H](Cc1ccccc1)NC(=O)[C@H](CCCNC(=N)N)NC(=O)[C@H](CCCNC(=N)N)NC(=O)[C@@H](N)CC(C)C)[C@@H](C)O)C(=O)N[C@@H](Cc1ccccc1)C(=O)N[C@@H](CC)C(=O)N[C@@H](CC(N)=O)C(=O)N[C@H](C(=O)N[C@@H](CC(N)=O)C(=O)N[C@@H](CC(N)=O)C(=O)N[C@H](C(=O)N[C@@H](CC)C(=O)N[C@@H](CC(N)=O)C(=O)N[C@@H](Cc1ccccc1)C(N)=O)C(C)C)[C@@H](C)CC [SP2018, LRRFSTMPF(Nle)F(Abu)NINNV(Abu)NF] (H-LRRFSTMPF[Nle]F[Abu]NINNV[Abu]NF-NH2; N-terminus assumed)
[1]
  Migration Inhibition (50 uM): 100%
[3]
  Adhesion Inhibition (100 uM): 90.9%%

## CC[C@H](NC(=O)[C@H](Cc1ccc(Cl)cc1)NC(=O)[C@H](CCSC)NC(=O)[C@H](Cc1ccccc1)NC(=O)[C@@H]1CCCN1C(=O)[C@H](CCSC)NC(=O)[C@@H](NC(=O)[C@H](CO)NC(=O)[C@H](Cc1ccccc1)NC(=O)[C@H](CCCNC(=N)N)NC(=O)[C@H](CCCNC(=N)N)NC(=O)[C@@H](N)CC(C)C)[C@@H](C)O)C(=O)N[C@@H](CC(N)=O)C(=O)N[C@H](C(=O)N[C@@H](CC(N)=O)C(=O)N[C@@H](CC(N)=O)C(=O)N[C@H](C(=O)N[C@@H](CC)C(=O)N[C@@H](CC(N)=O)C(=O)N[C@@H](Cc1ccccc1)C(N)=O)C(C)C)[C@@H](C)CC [SP2019, LRRFSTMPFM(4-ClPhe)(Abu)NINNV(Abu)NF] (H-LRRFSTMPFM[Phe(4-Cl)][Abu]NINNV[Abu]NF-NH2; N-terminus assumed)
[1]
  Migration Inhibition (50 uM): 98%
[3]
  Adhesion Inhibition (100 uM): 95.9%

## LRRFSTMPFMFGNINNVGNF-NH2 [SP2002]
[1]
  Migration Inhibition (50 uM): 87.9%
[2]
  Tube formation Inhibition (100 uM): Complete
[4]
  IC50: 31.4 µM
